Common to all, as to assay: inhibition of tumour cell growth, NCI panel, 48 h
The subject of assay [1] is KM12 colon.
The subject of assay [2] is MCF7 breast.
Assay [3] relates to MDA-MB-231 breast.
Assay [4] deals with NCI-H522 lung.
In assay [5] the test system is OVCAR-5 ovarian.
The test system of assay [6] is OVCAR-8 ovarian.
Assay [7] relates to RXF 393 renal.
Assay [8] has as its system SF-268 CNS.
Assay [9] has as its system SK-MEL-2 melanoma.
Assay [10] concerns SK-MEL-28 melanoma.
Assay [11] deals with SN12C renal.
Assay [12] relates to T-47D breast.
Assay [13] relates to U251 CNS.

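Interpolation was linear, between the two tested concentrations surrounding the appropriate level; five concentrations were tested over 48 hours in 96-well plates. TGI: concentration producing complete growth inhibition.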

Take `COc1ccccc1/[N+]([O-])=C/c1ccccc1OC(=S)S`: the TGI in assay [1] was > 100 µM; in [2], > 100 µM; in assay [3], > 100 µM; in assay [4], 71.4 µM; in [5], > 100 µM; in [6] it was 66.2 µM. The TGI in assay [7] is > 100 µM; in [8], > 100 µM; in assay [9] it was 80.2 µM; in [10] it was > 100 µM; in assay [11], > 100 µM; in assay [12], > 100 µM. In addition, the TGI in assay [13] is > 100 µM.

`COC(=O)/N=[N+](\[O-])C(c1ccc(Cl)cc1)c1ccc(Cl)cc1`: the TGI in [1] was > 100 µM; in assay [2], > 100 µM; in assay [3], 77.1 µM; in assay [4], > 100 µM; in assay [5] it was > 100 µM; in [6], > 100 µM. Also, the TGI was 84.1 µM in assay [7]; > 100 µM in assay [8]; > 100 µM in [9]; > 100 µM in assay [10]; > 100 µM in assay [11]; 91.9 µM in assay [12]. The TGI in assay [13] was > 100 µM.

Turning to `CN(C(=O)C12C3C4C1C1C2C3C41C(=O)O)C(C)(C)C` (centres undefined), the TGI in assay [1], in assay [2], in assay [3], in assay [4], in assay [5] and in [6] was > 100 µM in each case. The TGI in assay [7], in [8], in assay [9], in assay [10], in assay [11] and in [12] was > 100 µM each time. Further, the TGI in [13] was > 100 µM.

`COc1ccc(-c2c(C#N)c(N)n(C3OCC(O)C(O)C3O)c(=S)c2C#N)cc1` (centres undefined): the TGI in assay [1], in assay [2], in [3], in assay [4], in [5] and in [6] was > 100 µM each time. The TGI in assay [7], in assay [8], in [9], in [10], in assay [11] and in assay [12] was > 100 µM in each case.

Take `COc1ccc(C[C@H]2NC[C@H](OC(C)=O)[C@H]2OC(C)=O)cc1`: the TGI was 1.46 µM in assay [1]; > 100 µM in assay [2]; 1.49 µM in assay [3]; 0.289 µM in [4]; 0.679 µM in assay [5]; 2 µM in [6]. The TGI in assay [7] stood at 0.651 µM; in assay [8] it was 0.308 µM; in assay [9] it was 0.627 µM; in assay [10], 0.562 µM; in [11], 0.752 µM; in assay [12], 0.7 µM. For the same compound, the TGI in assay [13] came to 1.6 µM.

For `C=CCN1C(=O)/C(=C/c2ccccc2)N=C1SC/C=C/C`, the TGI is > 100 µM in assay [1]; > 100 µM in [2]; > 100 µM in [3]; > 100 µM in assay [4]; > 100 µM in assay [6]; 46.7 µM in [7]. Besides, the TGI is > 100 µM in assay [8]; 63 µM in assay [9]; > 100 µM in assay [10]; > 100 µM in assay [11]; > 100 µM in [12]; > 100 µM in [13].

Consider `CCOC(=O)NC(OCCN(C)C)(C(F)(F)F)C(F)(F)F`, for which the TGI in [1], in [2], in [3], in assay [4], in assay [5] and in assay [6] was > 100 µM in each case. The TGI in assay [7], in assay [8], in assay [9], in [10], in assay [11] and in assay [12] was > 100 µM in each case. Moreover, in assay [13], the TGI is > 100 µM.

On to `CNc1nc2c(C)ccc3nc(N(C)C)nc-3c2n1C`, for which the TGI in [1], in assay [2], in [3], in assay [4], in assay [5] and in assay [6] was > 10 µM each time. The TGI in assay [7], in assay [8], in assay [9], in assay [10], in assay [11] and in [12] was > 10 µM throughout. The TGI in assay [13] is > 10 µM.

`CCC(C)C1=C(O)[N+]2([O-])Oc3ccc(-c4c(O)c(O)c(-c5ccc(O)cc5)c(OC(C)=O)c4OC(C)=O)cc3OC2(C(C)CC)C(=O)N1O` (centres undefined): the TGI in assay [1], in assay [2], in assay [3], in assay [4], in [5] and in [6] was > 50 µM throughout. Also, the TGI in assay [7], in assay [8], in assay [9], in [10], in assay [11] and in assay [12] was > 50 µM in each case. The TGI in assay [13] is > 50 µM.

For the compound `CC1=NN(c2cccc(Cl)c2)C(=N/c2nc3ccccc3s2)/C1=C\c1ccccc1O`, the TGI in assay [1] is > 100 µM; in assay [2], > 100 µM; in assay [3], 64.4 µM; in assay [4], 49.4 µM; in assay [5] it was > 100 µM; in [6], > 100 µM. The TGI was > 100 µM in assay [7]; 78.8 µM in assay [8]; 40.3 µM in [9]; 76.3 µM in assay [10]; > 100 µM in assay [12]; 61 µM in [13].

Take `COC(=O)C1=C(O)C(C(=O)OC)[C@]2(O)[C@H](C(=O)OC)[C@H]1C[C@@H](c1ccc(Cl)cc1Cl)[C@H]2C(=O)OC` (some centres undefined): the TGI in [1] is 32.9 µM; in assay [2], 23 µM; in [3], 60 µM; in assay [5], 40.7 µM; in assay [6], 18 µM; in assay [7], 33.7 µM. Also, the TGI worked out at 38.1 µM in assay [8]; 20.3 µM in [9]; 53.6 µM in [10]; 22.2 µM in assay [11]; 96.9 µM in assay [12]; 14.4 µM in [13].
